# Measurements published in ChEMBL document CHEMBL1649264, “ATP synthase inhibition of Mycobacterium avium is not bactericidal” (2009).
# Several values for one entry are separate records, joined by “and”; a condition that tells them apart may be missing. Equal entries are not always repeated.
# Tests used:
# Format in all cases: functional
# Mycobacterium avium [1] = experiment: Antitubercular activity against Mycobacterium avium infected in C57BL/6J mouse assessed as reduction of CFU counts in spleen at 200 mg/kg, po administered one month post-infection five times weekly for 1 month (reference value: 7.4 +/- 1.7 log10CFU)
# Mycobacterium avium [2] = experiment: Antitubercular activity against Mycobacterium avium infected in C57BL/6J mouse assessed as reduction of CFU counts in spleen at 200 mg/kg, po administered one month post-infection five times weekly for 4 months (reference value: 8.9 +/- 0.3 log10CFU)
# Mycobacterium avium [3] = experiment: Antitubercular activity against Mycobacterium avium infected in C57BL/6J mouse assessed as reduction of CFU counts in spleen at 150 mg/kg, sc administered one month post-infection five times weekly for 2 months (reference value: 9.4 +/- 0.2 log10CFU); settings: route subcutaneous
# Mycobacterium avium [4] = experiment: Antitubercular activity against Mycobacterium avium infected in C57BL/6J mouse assessed as reduction of CFU counts in spleen at 25 mg/kg, po administered one month post-infection five times weekly for 3 months (reference value: 7.9 +/- 0.7 log10CFU)
# Mycobacterium avium [5] = experiment: Antitubercular activity against Mycobacterium avium infected in C57BL/6J mouse assessed as reduction of CFU counts in spleen at 200 mg/kg, po administered one day post-infection five times weekly for 1 month (reference value: 8.0 +/- 0.9 log10CFU)
# Mycobacterium avium [6] = experiment: Antitubercular activity against Mycobacterium avium infected in C57BL/6J mouse assessed as reduction of CFU counts in spleen at 150 mg/kg, sc administered one month post-infection five times weekly for 3 months (reference value: 7.9 +/- 0.7 log10CFU); settings: route subcutaneous
# Mycobacterium avium [7] = experiment: Antitubercular activity against Mycobacterium avium infected in C57BL/6J mouse assessed as reduction of CFU counts in spleen at 25 mg/kg, po administered one month post-infection five times weekly for 4 months (reference value: 8.9 +/- 0.3 log10CFU)
# Mycobacterium avium [8] = experiment: Antitubercular activity against Mycobacterium avium infected in C57BL/6J mouse assessed as reduction of CFU counts in spleen at 200 mg/kg, po administered one month post-infection five times weekly for 2 months (reference value: 9.4 +/- 0.2 log10CFU)
# [9] = tested on: Mycobacterium tuberculosis; experiment: Antimicrobial activity against Mycobacterium tuberculosis
# Mycobacterium avium [10] = experiment: Antitubercular activity against Mycobacterium avium infected in C57BL/6J mouse assessed as reduction of CFU counts in spleen at 25 mg/kg, po administered one month post-infection five times weekly for 1 month (reference value: 7.4 +/- 1.7 log10CFU)
# Mycobacterium avium [11] = experiment: Antimicrobial activity against Mycobacterium avium
# Mycobacterium avium [12] = experiment: Antitubercular activity against Mycobacterium avium infected in C57BL/6J mouse assessed as reduction of CFU counts in spleen at 25 mg/kg, po administered one day post-infection five times weekly for 1 month (reference value: 8.0 +/- 0.9 log10CFU)
# Mycobacterium avium [13] = experiment: Antitubercular activity against Mycobacterium avium infected in C57BL/6J mouse assessed as reduction of CFU counts in spleen at 150 mg/kg, sc administered one month post-infection five times weekly for 1 month (reference value: 7.4 +/- 1.7 log10CFU); settings: route subcutaneous
# Mycobacterium avium [14] = experiment: Antitubercular activity against Mycobacterium avium infected in C57BL/6J mouse assessed as reduction of CFU counts in spleen at 25 mg/kg, po administered one month post-infection five times weekly for 2 months (reference value: 9.4 +/- 0.2 log10CFU)
# Mycobacterium avium [15] = experiment: Antitubercular activity against Mycobacterium avium infected in C57BL/6J mouse assessed as reduction of CFU counts in spleen at 200 mg/kg, po administered one month post-infection five times weekly for 3 months (reference value: 7.9 +/- 0.7 log10CFU)
# Mycobacterium avium [16] = experiment: Antitubercular activity against Mycobacterium avium infected in C57BL/6J mouse assessed as reduction of CFU counts in spleen at 150 mg/kg, sc administered one month post-infection five times weekly for 4 months (reference value: 8.9 +/- 0.3 log10CFU); settings: route subcutaneous
smiles,measurement,setting,value
CC[C@H]1OC(=O)[C@H](C)[C@@H](O[C@H]2C[C@@](C)(OC)[C@@H](O)[C@H](C)O2)[C@H](C)[C@@H](O[C@@H]2O[C@H](C)C[C@H](N(C)C)[C@H]2O)[C@](C)(OC)C[C@@H](C)C(=O)[C@H](C)[C@@H](O)[C@]1(C)O [CLARITHROMYCIN],log10cfu,Mycobacterium avium [1],6.6
same,log10cfu,Mycobacterium avium [2],7.2
same,log10cfu,Mycobacterium avium [3],5
same,log10cfu,Mycobacterium avium [4],6.2
same,log10cfu,Mycobacterium avium [5],6
COc1nc2ccc(Br)cc2cc1[C@@H](c1ccccc1)[C@@](O)(CCN(C)C)c1cccc2ccccc12 [BEDAQUILINE],log10cfu,Mycobacterium avium [6],6.6
same,log10cfu,Mycobacterium avium [7],6.5
same,log10cfu,Mycobacterium avium [8],7.7
same,MIC,[9],0.06 µg/mL
same,log10cfu,Mycobacterium avium [10],6.5
same,MIC,Mycobacterium avium [11],0.007 µg/mL and 0.015 µg/mL
same,log10cfu,Mycobacterium avium [12],5.4
NCC[C@H](O)C(=O)N[C@@H]1C[C@H](N)[C@@H](O[C@H]2O[C@H](CN)[C@@H](O)[C@H](O)[C@H]2O)[C@H](O)[C@H]1O[C@H]1O[C@H](CO)[C@@H](O)[C@H](N)[C@H]1O [AMIKACIN],log10cfu,Mycobacterium avium [13],5.9
same,log10cfu,Mycobacterium avium [14],6.7
same,log10cfu,Mycobacterium avium [15],7.2
same,log10cfu,Mycobacterium avium [16],3.5
